In patent US10889581B2, “Cyclopropyl fused thiazine derivatives as beta-secretase inhibitors and methods of use” (AMGEN INC., priority 2016, dated 2021):

Experiments:
[1] = molecular target: T1, BACE1 (Homo sapiens (Human), UniProt P56817); assay: In vitro BACE1 cell-based assay (Aβ40 in conditioned medium of cells stably expressing APP, HTRF)
Description: In Vitro BACE1 Cell-Based Assay
The cell-based assay measures inhibition or reduction of Aβ40 in conditioned medium of test compound treated cells expressing amyloid precursor protein. Cells stably expressing Amyloid Precursor Protein (APP) were plated at a density of 45K cells/well in 384 well plates (Corning/BioCoat 354663). The test compounds were then added to cells in 22-point dose response concentrations with the starting concentration being 62.5 μM. The compounds were diluted from stock solutions in DMSO and the final DMSO concentration of the test compounds on cells was 0.625%. The cells were cultivated overnight at 37° C. and 5% CO2 in DMEM supplemented with 10% FBS. After 24 h of incubation with the test compounds, the conditioned media was collected and the Aβ40 levels were determined using HTRF (Homogeneous Time Resolved Fluorescence). The IC50 of the compound was calculated from the percent of control or percent inhibition of Aβ40 as a function of the concentration of the test compound.
The HTRF to detect Aβ40 was performed in 384 well plates (Costar 3658). The antibody pair that were used to detect Aβ40 from cell supernatants were ConfAb40 antibody (Amgen in-house) and biotinylated 6E10 (BIOLEGEND). As an alternative to ConfAb40, a commercially available antibody, Anti-beta Amyloid 1-40 antibody [BDI350] from Abcam, Cambridge, Mass. 02139-1517 (Product code: ab20068), may be used in this assay. The concentrations were 0.35 μg/mL of ConfAb40 antibody and 1.33 μg/mL of 6E10-biotinylated antibody, as well as 4.5 μg/mL of Streptavidin Allophycocyanin Conjugate (ThermoFisher Scientific) in HTRF Buffer ([…], 1% BSA, 0.5% Tween 20).
The conditioned media was incubated with above antibodies and Streptavidin Allophycocyanin Conjugate for 30-60 minutes at 23° C. The final readout was performed on Envision from PerkinElmer.
Target sequence in this assay (P56817 46-501, species assumed): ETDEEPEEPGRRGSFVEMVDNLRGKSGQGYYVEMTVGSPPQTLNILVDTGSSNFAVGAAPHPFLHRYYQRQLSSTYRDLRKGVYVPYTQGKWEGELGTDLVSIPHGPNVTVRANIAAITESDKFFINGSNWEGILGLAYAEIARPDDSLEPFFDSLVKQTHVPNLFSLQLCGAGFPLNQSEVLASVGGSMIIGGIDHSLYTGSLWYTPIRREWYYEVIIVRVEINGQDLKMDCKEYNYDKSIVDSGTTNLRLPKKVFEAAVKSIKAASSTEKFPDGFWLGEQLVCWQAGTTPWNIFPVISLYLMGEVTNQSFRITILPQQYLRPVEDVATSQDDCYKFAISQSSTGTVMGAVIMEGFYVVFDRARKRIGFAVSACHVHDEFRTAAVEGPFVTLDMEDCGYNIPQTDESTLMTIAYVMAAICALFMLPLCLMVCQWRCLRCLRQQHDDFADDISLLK

[2] = molecular target: Recombinant CatD (Homo sapiens (Human), UniProt P07339); assay: In vitro enzymatic Cathepsin D (CatD) FRET assay; type: biochemical; conditions: pH 3.5, read-out: Cat D Enzyme IC50
[3] = molecular target: human recombinant BACE2 (Homo sapiens (Human), UniProt Q9Y5Z0); assay: In vitro enzymatic BACE2 FRET assay; type: biochemical; conditions: pH 4.5, read-out: BACE2 Enzyme IC50
[4] = molecular target: T1, BACE1; assay: In vitro enzymatic BACE1 FRET assay; type: biochemical; conditions: pH 4.5, read-out: BACE1 Enzyme IC50
Target sequence in this assay (P56817 46-501): as the sequence (P56817 46-501, species assumed) above

[5] = Aβ40, 24 h incubation, read-out: BACE1 Cell IC50

Sequence of Recombinant CatD (P07339 65-412): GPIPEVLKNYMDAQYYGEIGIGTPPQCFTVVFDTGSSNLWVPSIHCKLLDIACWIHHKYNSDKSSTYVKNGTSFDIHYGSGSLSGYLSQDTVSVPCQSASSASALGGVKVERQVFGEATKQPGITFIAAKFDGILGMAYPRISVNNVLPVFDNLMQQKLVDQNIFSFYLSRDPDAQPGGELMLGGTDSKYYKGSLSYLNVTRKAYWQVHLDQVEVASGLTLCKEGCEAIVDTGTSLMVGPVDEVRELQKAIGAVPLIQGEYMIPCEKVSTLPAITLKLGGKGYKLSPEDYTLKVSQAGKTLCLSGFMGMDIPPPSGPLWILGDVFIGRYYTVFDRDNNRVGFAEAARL
Sequence of human recombinant BACE2 (Q9Y5Z0 63-518): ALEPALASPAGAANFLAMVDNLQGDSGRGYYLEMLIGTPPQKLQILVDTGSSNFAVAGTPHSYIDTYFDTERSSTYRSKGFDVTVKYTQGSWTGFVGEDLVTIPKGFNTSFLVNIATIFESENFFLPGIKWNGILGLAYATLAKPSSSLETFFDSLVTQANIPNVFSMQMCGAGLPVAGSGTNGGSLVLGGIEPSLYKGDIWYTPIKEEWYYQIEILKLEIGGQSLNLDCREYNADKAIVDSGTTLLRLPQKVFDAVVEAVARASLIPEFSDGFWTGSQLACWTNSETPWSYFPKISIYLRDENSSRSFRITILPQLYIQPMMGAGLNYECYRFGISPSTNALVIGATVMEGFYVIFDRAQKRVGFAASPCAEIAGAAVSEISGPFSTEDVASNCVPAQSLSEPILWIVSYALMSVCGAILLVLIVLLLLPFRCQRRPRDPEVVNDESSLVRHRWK

Structure (SMILES)	IC50 [1]	IC50 [2]	IC50 [3]	IC50 [1, 5]	IC50 [4]
COC[C@]12CC1[C@@](C)(c1cc(C#Cc3ncc(Cl)cc3C)ccc1F)N=C(N)S2 (stereo partly drawn) [Example 134, (1S,5S)-5-(5-((5-chloro-3-methylpyridin-2-yl)ethynyl)-2-fluorophenyl)-1-(methoxymethyl)-5-methyl-2-thia-4-azabicyclo[4.1.0]hept-3-en-3-amine]	0.951 µM				
N#Cc1ccc(C#Cc2ccc(F)c([C@@]3(CF)N=C(N)S[C@@]4(Cn5ccnc5)C[C@H]43)c2)nc1 [Example 125, 6-((3-((1S,5S,6S)-1-((1H-imidazol-1-yl)methyl)-3-amino-5-(fluoromethyl)-2-thia-4-azabicyclo[4.1.0]hept-3-en-5-yl)-4-fluorophenyl)ethynyl)nicotinonitrile]		248 µM	8.08 µM	0.118 µM	0.583 µM
Cc1cc(OCc2ncco2)cnc1C#Cc1ccc(F)c([C@@]2(C)N=C(N)S[C@@]3(C(=O)N(C)C)C[C@H]32)c1 [Example 131, (1S,5S,6S)-3-amino-5-(2-fluoro-5-((3-methyl-5-(oxazol-2-ylmethoxy)pyridin-2-yl)ethynyl)phenyl)-N,N,5-trimethyl-2-thia-4-azabicyclo[4.1.0]hept-3-ene-1-carboxamide]		995 µM	2.18 µM	0.053 µM	0.041 µM
Cc1cc(C#N)cnc1C#Cc1ccc(F)c([C@@]2(CF)N=C(N)S[C@@]3(CF)C[C@H]32)c1 [Example 104, 6-((3-((1S,5S,6S)-3-amino-1,5-bis(fluoromethyl)-2-thia-4-azabicyclo[4.1.0]hept-3-en-5-yl)-4-fluorophenyl)ethynyl)-5-methylnicotinonitrile]		1300 µM	2.28 µM	0.231 µM	0.038 µM
N#Cc1ccc(C#Cc2ccc(F)c([C@@]3(CF)N=C(N)S[C@@]4(CCC(=O)N5CCOCC5)C[C@H]43)c2)nc1 [Example 119, 6-((3-((1S,5S,6S)-3-amino-5-(fluoromethyl)-1-(3-morpholino-3-oxopropyl)-2-thia-4-azabicyclo[4.1.0]hept-3-en-5-yl)-4-fluorophenyl)ethynyl)nicotinonitrile]		188 µM	0.126 µM	0.06 µM	0.049 µM
CC#CCOc1ccc(C#Cc2ccc(F)c([C@@]3(CF)N=C(N)S[C@@]4(CF)C[C@H]43)c2)nc1 [Example 105, (1S,5S,6S)-5-(5-((5-(but-2-yn-1-yloxy)pyridin-2-yl)ethynyl)-2-fluorophenyl)-1,5-bis(fluoromethyl)-2-thia-4-azabicyclo[4.1.0]hept-3-en-3-amine]		500 µM	10.3 µM	0.746 µM	0.096 µM
Cc1cc(C#N)cnc1C#Cc1ccc(F)c([C@@]2(C)N=C(N)S[C@@]3(C(=O)N(C)C)C[C@H]32)c1 [Example 123, (1S,5S,6S)-3-amino-5-(5-((5-cyano-3-methyl-2-pyridinyl)ethynyl)-2-fluorophenyl)-N,N,5-trimethyl-2-thia-4-azabicyclo[4.1.0]hept-3-ene-1-carboxamide]		236 µM	0.099 µM	0.003 µM	0.003 µM
NC1=N[C@](CF)(c2cc(C#Cc3ccc(Cl)cn3)ccc2F)[C@@H]2C[C@]2(CF)S1 [Example 102, (1S,5S,6S)-5-(5-((5-chloropyridin-2-yl)ethynyl)-2-fluorophenyl)-1,5-bis(fluoromethyl)-2-thia-4-azabicyclo[4.1.0]hept-3-en-3-amine]		673 µM	0.445 µM	0.685 µM	0.182 µM
COC[C@]12CC1[C@@](C)(c1cc(C#Cc3ncc(C#N)cc3C)ccc1F)N=C(N)S2 (stereo partly drawn) [Example 135, 6-((3-((1S,5S)-3-amino-1-(methoxymethyl)-5-methyl-2-thia-4-azabicyclo[4.1.0]hept-3-en-5-yl)-4-fluorophenyl)ethynyl)-5-methylnicotinonitrile]	0.033 µM	> 400 µM	1.47 µM		0.023 µM
N#Cc1ccc(C#Cc2ccc(F)c([C@@]3(CF)N=C(N)S[C@@]4(/C=C/C(=O)N5CCOCC5)C[C@H]43)c2)cc1 [Example 122, 4-((3-((1R,5S,6S)-3-amino-5-(fluoromethyl)-1-((E)-3-morpholino-3-oxoprop-1-en-1-yl)-2-thia-4-azabicyclo[4.1.0]hept-3-en-5-yl)-4-fluorophenyl)ethynyl)benzonitrile]		84.3 µM	0.281 µM	0.049 µM	0.01 µM
CN(C)C(=O)[C@]12C[C@H]1[C@@](C)(c1cc(C#CC3CC3)ccc1F)N=C(N)S2 [Example 132, (1S,5S,6S)-3-amino-5-(5-(cyclopropylethynyl)-2-fluorophenyl)-N,N,5-trimethyl-2-thia-4-azabicyclo[4.1.0]hept-3-ene-1-carboxamide]		46.8 µM	0.007 µM	0.059 µM	0.02 µM
C[C@]1(c2cc(C#Cc3ccc(C#N)cn3)cnc2F)N=C(N)S[C@@]2(CF)C[C@H]21 [Example 114, 6-((5-((1S,5S,6S)-3-amino-1-(fluoromethyl)-5-methyl-2-thia-4-azabicyclo[4.1.0]hept-3-en-5-yl)-6-fluoropyridin-3-yl)ethynyl)nicotinonitrile]		> 400 µM	3.37 µM	0.677 µM	0.637 µM
CN(C)C(=O)[C@]12C[C@H]1[C@@](C)(c1cc(C#Cc3ccc(C#N)cc3)ccc1F)N=C(N)S2 [Example 129, (1S,5S,6S)-3-amino-5-(5-((4-cyanophenyl)ethynyl)-2-fluorophenyl)-N,N,5-trimethyl-2-thia-4-azabicyclo[4.1.0]hept-3-ene-1-carboxamide]	0.058 µM	289 µM	0.251 µM		0.007 µM
NC1=N[C@](CF)(c2cc(C#Cc3ccc(OCc4ncco4)cn3)ccc2F)[C@@H]2C[C@]2(CF)S1 [Example 108, (1S,5S,6S)-5-(2-fluoro-5-((5-(oxazol-2-ylmethoxy)pyridin-2-yl)ethynyl)phenyl)-1,5-bis(fluoromethyl)-2-thia-4-azabicyclo[4.1.0]hept-3-en-3-amine]		784 µM	14.1 µM	2.02 µM	0.735 µM
N#Cc1cnc(C#Cc2ccc(F)c([C@@]3(CF)N=C(N)S[C@@]4(CF)C[C@H]43)c2)cn1 [Example 103, 5-((3-((1S,5S,6S)-3-amino-1,5-bis(fluoromethyl)-2-thia-4-azabicyclo[4.1.0]hept-3-en-5-yl)-4-fluorophenyl)ethynyl)pyrazine-2-carbonitrile]		229 µM	1.59 µM	3.91 µM	0.086 µM
N#Cc1ccc(C#Cc2ccc(F)c([C@@]3(CF)N=C(N)S[C@@]4(CC(N)=O)C[C@H]43)c2)nc1 [Example 113, 2-((1R,5S,6S)-3-amino-5-(5-((5-cyanopyridin-2-yl)ethynyl)-2-fluorophenyl)-5-(fluoromethyl)-2-thia-4-azabicyclo[4.1.0]hept-3-en-1-yl)acetamide]		1420 µM	3.76 µM	0.153 µM	0.116 µM
CN(C)C(=O)/C=C/[C@]12C[C@H]1[C@@](CF)(c1cc(C#Cc3ccc(C#N)cn3)ccc1F)N=C(N)S2 [Example 112, (E)-3-((1R,5S,6S)-3-amino-5-(5-((5-cyanopyridin-2-yl)ethynyl)-2-fluorophenyl)-5-(fluoromethyl)-2-thia-4-azabicyclo[4.1.0]hept-3-en-1-yl)-N,N-dimethylacrylamide]		176 µM	1.59 µM	0.139 µM	0.025 µM
Cc1cc(C#N)cnc1C#Cc1ccc(F)c([C@@]2(CF)N=C(N)S[C@@]3(CCC(=O)N4CCOCC4)C[C@H]32)c1 [Example 120, 6-((3-((1S,5S,6S)-3-amino-5-(fluoromethyl)-1-(3-morpholino-3-oxopropyl)-2-thia-4-azabicyclo[4.1.0]hept-3-en-5-yl)-4-fluorophenyl)ethynyl)-5-methylnicotinonitrile]		190 µM	0.179 µM	0.052 µM	0.011 µM
N#Cc1ccc(C#Cc2ccc(F)c([C@@]3(CF)N=C(N)S[C@@]4(CF)C[C@H]43)c2)nc1 [Example 101, 6-((3-((1S,5S,6S)-3-amino-1,5-bis(fluoromethyl)-2-thia-4-azabicyclo[4.1.0]hept-3-en-5-yl)-4-fluorophenyl)ethynyl)nicotinonitrile]		2860 µM	6.04 µM	0.271 µM	0.104 µM
